Experimental data taken from article PMC5559104, “Heat shock protein 90 localizes to the surface and augments virulence factors of Cryptococcus neoformans” (PLoS Neglected Tropical Diseases, 2017).

Columns and labels:
[1] = molecular target: T1, CnHsp90 (heat shock protein 90) (Cryptococcus neoformans, UniProt J9VVA4); assay: intrinsic tryptophan fluorescence quenching; also inhibits ATPase activity of the purified protein (IC50 […] at […]°C, […] at […]°C); assay type: binding
T1 construct: gene CNAG_06150; recombinant CnHsp90 6x-His tag fusion protein (2157 bp amplified product in pRSET-A)

[2] = molecular target: T1, CnHsp90 (heat shock protein 90); assay: intrinsic tryptophan fluorescence quenching; also hydrolysis of γ-32P-ATP (Km […] at […]°C, […] at […]°C); assay type: binding

T1 sequence (J9VVA4 entry or part of it): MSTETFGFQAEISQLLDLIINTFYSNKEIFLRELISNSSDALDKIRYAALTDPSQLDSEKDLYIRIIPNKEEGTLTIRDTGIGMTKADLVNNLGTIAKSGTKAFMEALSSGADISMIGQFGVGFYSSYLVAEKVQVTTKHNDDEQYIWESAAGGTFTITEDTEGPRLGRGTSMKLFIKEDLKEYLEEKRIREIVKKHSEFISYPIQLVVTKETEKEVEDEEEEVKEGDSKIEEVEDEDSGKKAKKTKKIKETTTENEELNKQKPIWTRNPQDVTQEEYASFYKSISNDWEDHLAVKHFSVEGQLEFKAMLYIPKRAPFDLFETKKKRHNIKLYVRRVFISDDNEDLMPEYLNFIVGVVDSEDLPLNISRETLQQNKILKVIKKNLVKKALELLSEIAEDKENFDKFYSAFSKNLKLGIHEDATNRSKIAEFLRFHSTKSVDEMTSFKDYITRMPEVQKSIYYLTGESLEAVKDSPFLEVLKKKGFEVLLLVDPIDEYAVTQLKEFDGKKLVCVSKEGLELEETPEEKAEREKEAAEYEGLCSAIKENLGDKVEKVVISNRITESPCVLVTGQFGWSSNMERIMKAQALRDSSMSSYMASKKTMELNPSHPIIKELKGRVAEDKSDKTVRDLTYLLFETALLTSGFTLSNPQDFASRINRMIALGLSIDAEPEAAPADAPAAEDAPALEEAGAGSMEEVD

SMILES | Kd [1] | Kd [2]
C=CCNC1=C2C[C@@H](C)C[C@H](OC)[C@H](O)[C@@H](C)/C=C(\C)[C@H](OC(N)=O)[C@@H](OC)/C=C\C=C(/C)C(=O)NC(=CC1=O)C2=O [17-AAG] | 12.9 µM | –
Nc1ncnc2c1ncn2[C@@H]1O[C@H](COP(=O)(O)OP(=O)(O)OP(=O)(O)O)[C@@H](O)[C@H]1O [ATP] | – | 497 µM
